Patent US20090081197A1 (Palatin Technologies, Inc., priority 2007, published 2009)

How the values were obtained:
MC3-R = MC3-R (Homo sapiens, UniProt P41968); assay: Competitive inhibition assay using [I^125]-NDP-α-MSH, hMC3-R membranes; type: binding; set-up: expressed in transfected cells; settings: for inhibition at 1 µM: 1 μM test compound, read-out: Inhibition at 1 μM (NDP-α-MSH) In Normal System, MC3-R; for Ki: read-out: Ki (nM) (NDP-α-MSH) In Normal System, MC3-R
Procedure: (§1) The ligand concentration used was 0.4 nM for MC3-R and MC5-R, 0.2 nM for MC4-R and 0.1 nM for B16-F10 (MC1-R) membranes. In certain experiments, hMC1-R was also employed.
(§2) The assay mixture was incubated for 90 minutes at room temperature, then filtered and the membranes washed three times with ice cold buffer. The filter was dried and counted in a gamma counter for remaining radioactivity bound to the membranes. […] Each assay was conducted in triplicate and the actual mean values are described, with results less than 0% reported as 0%.

MC4-R [1] = biological target: T1, MC4-R (Homo sapiens, UniProt P32245); assay: cAMP agonist stimulation, high receptor density system (10 ng/mL doxycycline); settings: for Efficacy/Intrinsic Activity: NDP-α-MSH maximal cAMP = 1.0
T1 sequence (P32245 whole entry): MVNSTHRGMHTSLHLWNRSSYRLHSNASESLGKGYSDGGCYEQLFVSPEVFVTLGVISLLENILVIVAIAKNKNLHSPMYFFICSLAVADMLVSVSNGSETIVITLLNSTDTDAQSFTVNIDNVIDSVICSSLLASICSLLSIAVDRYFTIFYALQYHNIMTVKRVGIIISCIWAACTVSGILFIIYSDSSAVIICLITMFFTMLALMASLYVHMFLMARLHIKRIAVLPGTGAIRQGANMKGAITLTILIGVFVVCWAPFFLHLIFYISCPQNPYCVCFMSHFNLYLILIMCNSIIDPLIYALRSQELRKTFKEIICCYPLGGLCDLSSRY

MC4-R [2] = biological target: T1, MC4-R; assay: cAMP agonist stimulation, low receptor density system (0.1 ng/mL doxycycline); settings: 0.1 ng/mL doxycycline, low receptor density hMC4-R system; NDP-α-MSH maximal cAMP = 1.0
[3] = ICV food intake and body weight change; type: in vivo; settings: rat, 1 nmol, 24 hours
Procedure: ICV food intake and body weight change. Change in food intake and body weight was evaluated for selected compounds. Rats with indwelling intracerebroventricular cannulas (ICV rats) were obtained from Hilltop Lab Animals, Inc. (Scottdale, Pa.). Animals were individually housed in conventional plexiglass hanging cages and maintained on a controlled 12 hour on/off light cycle. Water and powdered (LabDiet, 5P00 Prolab RMH 3000) or pelleted (Harlan Teklad 2018 18% Protein Rodent Diet) food was provided ad libitum. For 1 week before treatment, 24-hour food intake and body weight change was recorded to assess a baseline for the group during vehicle treatment. The rats were dosed ICV with vehicle or selected compounds (1-3 nmol). The changes in body weight and food intake for the 24 hour period after dosing were determined. The changes in body weight and food intake for the 48 hour and 72 hour periods after dosing were also measured to determine reversal of changes in body weight and food intake effects back to baseline levels.

MC4-R [4] = biological target: T1, MC4-R; assay: cAMP functional activity assay in HEK-293 cells, normal system; type: cell-based; set-up: expressed in transfected cells; host or cells: HEK-293; settings: for intrinsic activity at MC4-R in a normal system / EC50: normal receptor density system; for intrinsic activity at MC4-R in a normal system: NDP-α-MSH = 1.0; for functional status at MC4-R in cAMP assay: normal system, 1 μM concentration where stated
Procedure: General method for EC50 determination in functional activity assay. […] Data analysis and EC50 values were determined using nonlinear regression analysis with Prism Graph-Pad software.
Functional status. The agonist/antagonist status with respect to MC1-R, MC-3R, MC4-R and MC5-R of certain compounds of the invention was determined. Antagonistic activity was determined by measuring the inhibition of α-MSH-induced or NDP-α-MSH-induced cAMP levels following exposure to graded doses of compounds as in the preceding descriptions.
Assay for agonist. Evaluation of the molecules to elicit a functional response in HEK-293 cells expressing MC4-R was accomplished by measuring the accumulation of intracellular cAMP following treatment. Confluent HEK-293 cells expressing MC4-R receptors were detached by enzyme free cell suspension buffer. […] The cells were plated in a 96 well plates at a density of 0.5×10^5 cells per well and pre-incubated for 30 minutes. Test compounds (dissolved in dimethylsulfoxide (DMSO) at a concentration range of 0.05-5000 nM) were added in a total assay volume of 200 μL and cells were incubated for 1 hour at 37° C. The concentration of DMSO was always held at 1% in the assay mixture. NDP-α-MSH was used as the reference agonist. […] Data analysis and EC50 values were determined by using nonlinear regression analysis with Prism Graph-Pad software. […] Compounds with a response ratio of less than 0.1 (10%) were evaluated for antagonistic activity.

MC1-R = biological target: T2, MC1-R (Mus musculus, UniProt Q01727); assay: Competitive inhibition assay using [I^125]-NDP-α-MSH, B-16 mouse melanoma cell membranes; type: binding; settings: for inhibition at 1 µM: 1 μM test compound, read-out: Inhibition at 1 μM (NDP-α-MSH) In Normal System, MC1-R; for Ki: read-out: Ki (nM) (NDP-α-MSH) In Normal System, MC1-R
T2 construct: B-16 mouse melanoma cells (containing MC1-R); endogenous in cells
T2 sequence (Q01727 whole entry): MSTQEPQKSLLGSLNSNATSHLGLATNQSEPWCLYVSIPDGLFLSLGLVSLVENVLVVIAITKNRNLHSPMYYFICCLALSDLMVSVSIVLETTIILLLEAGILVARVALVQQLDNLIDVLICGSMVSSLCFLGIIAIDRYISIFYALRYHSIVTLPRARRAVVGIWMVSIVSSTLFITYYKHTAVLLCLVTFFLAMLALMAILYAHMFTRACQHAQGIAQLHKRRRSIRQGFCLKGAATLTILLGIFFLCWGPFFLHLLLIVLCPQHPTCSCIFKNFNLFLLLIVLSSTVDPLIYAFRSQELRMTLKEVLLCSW
Procedure: as §1, §2

MC5-R = MC5-R (Homo sapiens, UniProt P33032); assay: Competitive inhibition assay using [I^125]-NDP-α-MSH, hMC5-R membranes; type: binding; set-up: expressed in transfected cells; settings: for inhibition at 1 µM: 1 μM test compound, read-out: Inhibition at 1 μM (NDP-α-MSH) In Normal System, MC5-R; for Ki: read-out: Ki (nM) (NDP-α-MSH) In Normal System, MC5-R
MC5-R, sequence (P33032 whole entry): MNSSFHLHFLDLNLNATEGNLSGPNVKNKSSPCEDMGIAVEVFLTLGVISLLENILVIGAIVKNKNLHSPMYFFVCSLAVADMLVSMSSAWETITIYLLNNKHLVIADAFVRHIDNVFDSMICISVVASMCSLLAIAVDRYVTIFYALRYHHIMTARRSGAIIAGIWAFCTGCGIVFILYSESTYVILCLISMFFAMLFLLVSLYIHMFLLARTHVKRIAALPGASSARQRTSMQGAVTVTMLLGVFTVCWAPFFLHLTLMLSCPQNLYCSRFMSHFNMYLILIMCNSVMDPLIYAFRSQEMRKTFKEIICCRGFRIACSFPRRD
Procedure: as §1, §2

MC4-R [5] = biological target: T1, MC4-R; assay: Competitive inhibition assay using [I^125]-NDP-α-MSH, hMC4-R membranes; type: binding; set-up: host or cells: TREx-293 (HEK-293 stably expressing Tet repressor); settings: for inhibition at 1 µM: 1 μM test compound, read-out: Inhibition at 1 μM (NDP-α-MSH) In Normal System, MC4-R; for Ki: read-out: Ki (nM) (NDP-α-MSH) In Normal System, MC4-R
Procedure: as §1, §2

[6] = IP (and IN) food intake, mice; type: in vivo; settings: mouse, IP, 10 mg/kg, 4 hours; for inhibition in vivo at 10 mg/kg: read-out: maximal decrease in food intake
Procedure: IV and IP food intake and body weight change. Change in food intake and body weight was evaluated for selected compounds. Male Sprague-Dawley rats or male C57BL/6 mice were utilized. Animals were individually housed in conventional plexiglass hanging cages and maintained on a controlled 12 hour on/off light cycle. Water and powdered (LabDiet, 5P00 Prolab RMH 3000) or pelleted (Harlan Teklad 2018 18% Protein Rodent Diet) food was provided ad libitum. For 1 week before treatment, 24-hour food intake and body weight change was recorded to assess a baseline for the group during vehicle treatment. The rats were dosed IV with vehicle or selected compounds (0.5-3 mg/kg, and in some cases up to 10 mg/Kg) or dosed intraperitoneally (IP) with vehicle or selected compounds (0.5-10 mg/kg, and in some cases up to 50 mg/kg). Mice were dosed IP. […] The changes in body weight and food intake for the 48 hour and 72 hour periods after dosing were also measured to determined reversal of changes in body weight and food intake effects back to baseline levels.

[7] = Penile erection induction in male rats; type: in vivo; settings: rat, IV; for penile erection response: 1 μg/kg
Procedure: Penile erection induction. The ability of compounds to induce penile erection (PE) in male rats was evaluated with selected compounds. Male Sprague-Dawley rats weighing 200-250 g were kept on a 12 hour on/off light cycle with food and water ad libitum. All behavioral studies were performed between 10 A.M. and 5 P.M. Groups of 4-8 rats were treated with compounds at a variety of doses via intravenous (IV) or intracerebroventricular (ICV) routes. Immediately after treatment, rats were placed into individual polystyrene cages (27 cm long, 16 cm wide, and 25 cm high) for behavioral observation. […] Controls utilized carrier without the test compound. Mean PEs in control groups were 0.17 to 0.5 PEs/rat by IV administration in various experiments and between 1-2 PEs/rat by ICV administration in various experiments, and thus only PEs with statistically relevant increases over the mean PEs in control groups are reported as inducing PEs. A PE response in IV animals greater than the mean PEs in control groups but less than 1.0 PEs/rat, particularly with less than all animals responding, was treated as equivocal, and not necessarily distinguishable from vehicle control. In selected instances, compounds with equivocal results in the IV model were tested for penile response in an ICV model, and compounds without a statistically relevant increase over the mean PEs in ICV control groups were determined to not induce PEs.

[8] = 10 ng/mL doxycycline, high receptor density hMC4-R system

MC3-R, sequence (P41968 whole entry): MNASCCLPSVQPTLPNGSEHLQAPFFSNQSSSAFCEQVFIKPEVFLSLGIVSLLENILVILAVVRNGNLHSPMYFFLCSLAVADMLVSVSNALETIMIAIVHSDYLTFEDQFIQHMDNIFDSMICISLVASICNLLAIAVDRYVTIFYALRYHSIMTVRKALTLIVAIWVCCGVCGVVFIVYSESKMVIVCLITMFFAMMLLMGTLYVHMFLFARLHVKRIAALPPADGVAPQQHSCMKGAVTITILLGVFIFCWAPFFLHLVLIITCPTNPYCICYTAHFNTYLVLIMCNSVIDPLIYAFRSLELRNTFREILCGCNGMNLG

## NCCCC[C@H]1C(=O)N(CCc2ccc3ccccc3c2)CCN1C(=O)[C@@H](Cc1ccc(Cl)cc1Cl)NC(=O)[C@@H]1CC[C@H](c2ccccc2)N1 [Example 18, (2S,5R)-5-phenyl-pyrrolidine-2-carboxylic acid [(R)-2-[(S)-2-(4-amino-butyl)-4-(2-naphthalen-2-yl-ethyl)-3-oxo-piperazin-1-yl]-1-(2,4-dichloro-benzyl)-2-oxo-ethyl]-amide]
MC3-R
  inhibition at 1 µM: 18%
MC4-R [1]
  EC50: 281 nM
MC4-R [1]; [8]
  Efficacy/Intrinsic Activity: 0.29
MC4-R [2]
  Efficacy/Intrinsic Activity: None
[3]
  decrease in body weight: 2%
  decrease in food intake: 31%
MC4-R [4]
  intrinsic activity at MC4-R in a normal system: 0.2
  functional status at MC4-R in cAMP assay: partial agonist (intrinsic activity between 0.1 (10%) and 0.7 (70%) is classified as a partial agonist)
MC1-R
  inhibition at 1 µM: 0%
  Ki: 1370 nM
MC5-R
  inhibition at 1 µM: 51%
  Ki: 789 nM
MC4-R [5]
  inhibition at 1 µM: 92%
  Ki: 50 nM

## CC(=O)N[C@H](Cc1ccc2ccccc2c1)C(=O)N1C[C@@H](CC(C)C)N(CCc2ccc3ccccc3c2)C[C@@H]1CCCNC(=N)N [Example 12, N-{2-[2(S)-(3-Guanidino-propyl)-5(R)-isobutyl-4-(2-naphthalen-2-yl-ethyl)-piperazin-1-yl]-1(R)-naphthalen-2-ylmethyl-2-oxo-ethyl}-acetamide]
MC3-R
  inhibition at 1 µM: 40%
MC4-R [1]; [8]
  Efficacy/Intrinsic Activity: None
MC4-R [2]
  Efficacy/Intrinsic Activity: None
MC1-R
  inhibition at 1 µM: 0%
  Ki: 4620 nM
MC5-R
  inhibition at 1 µM: 64%
MC4-R [5]
  inhibition at 1 µM: 100%
[6]
  maximal decrease in food intake: 46%

## C[C@@H]1CN(C(=O)[C@H](N)Cc2ccc3ccccc3c2)[C@@H](CCCNC(=N)N)CN1C(=O)Cc1ccc2ccccc2c1 [Example 33, N-{3-[(2S)-1-[(R)-2-Amino-3-(naphthlene-2-yl)-propionyl]-5(R)-methyl-4-(2-naphthalen-2-yl-acetyl)-piperazin-2-yl]-propyl}-guanidine]
MC3-R
  inhibition at 1 µM: 40%
  Ki: 596 nM
MC4-R [1]
  EC50: 50 nM
MC4-R [4]
  EC50: 42 nM
MC1-R
  inhibition at 1 µM: 43%
  Ki: 227 nM
MC5-R
  inhibition at 1 µM: 50%
  Ki: 548 nM
MC4-R [5]
  inhibition at 1 µM: 89%
  Ki: 19 nM
[6]
  inhibition in vivo at 10 mg/kg: 25%

## (E)-N—[(R)-2-[(S)-2-(4-Amino-butyl)-4-(2-naphthalen-2-yl-ethyl)-3-oxo-piperazin-1-yl]-1-(2,4-dichloro-benzyl)-2-oxo-ethyl]-3-phenyl-acrylamide [Example 20]
MC3-R
  Ki: 648 nM
MC4-R [1]; [8]
  EC50: 215 nM
  Efficacy/Intrinsic Activity: 0.38
MC4-R [2]
  Efficacy/Intrinsic Activity: None
[7]
  Penile Erection IV: No
  penile erection response: no penile erection response
[3]
  decrease in body weight: 3%
  decrease in food intake: 4%
MC4-R [4]
  EC50: 112 nM
  intrinsic activity at MC4-R in a normal system: 0.2
  functional status at MC4-R in cAMP assay: partial agonist (intrinsic activity between 0.1 (10%) and 0.7 (70%) is classified as a partial agonist)
MC1-R
  Ki: 502 nM
MC5-R
  Ki: 398 nM
MC4-R [5]
  Ki: 6 nM

## NCCCC[C@H]1C(=O)N(CCc2ccc3ccccc3c2)CCN1C(=O)[C@@H](Cc1ccc(Cl)cc1Cl)NC(=O)c1ccc(Oc2ccccc2)cc1 [Example 21, N—[(R)-2-[(S)-2-(4-Amino-butyl)-4-(2-naphthalen-2-yl-ethyl)-3-oxo-piperazin-1-yl]-1-(2,4-dichloro-benzyl)-2-oxo-ethyl]-4-phenoxy-benzamide]
MC3-R
  inhibition at 1 µM: 51%
MC4-R [1]; [8]
  Efficacy/Intrinsic Activity: None
MC4-R [2]
  Efficacy/Intrinsic Activity: None
[7]
  Penile Erection IV: No
  penile erection response: no penile erection response
[3]
  decrease in body weight: 1%
  decrease in food intake: 2%
MC4-R [4]
  functional status at MC4-R in cAMP assay: no intrinsic activity (intrinsic activity below 0.1 (10%) is classified as inactive or having no intrinsic activity)
MC1-R
  inhibition at 1 µM: 35%
MC5-R
  inhibition at 1 µM: 51%
MC4-R [5]
  inhibition at 1 µM: 99%

## CC(=O)N[C@H](Cc1ccc2ccccc2c1)C(=O)N1C[C@@H](C)N(C(=O)Cc2ccc3ccccc3c2)C[C@@H]1CCCNC(=N)N [Example 32, N-{(R)-2-[(2S,5R)-2-(3-guanidino-propyl)-5-methyl-4-(2-naphthalen-2-yl-acetyl)-piperazin-1-yl]-1-naphthalen-2-ylmethyl-2-oxo-ethyl}-acetamide]
MC3-R
  inhibition at 1 µM: 38%
  Ki: 634 nM
MC4-R [4]
  EC50: 7 nM
MC1-R
  inhibition at 1 µM: 51%
  Ki: 406 nM
MC5-R
  inhibition at 1 µM: 44%
  Ki: 826 nM
MC4-R [5]
  inhibition at 1 µM: 97%
  Ki: 7 nM
[6]
  inhibition in vivo at 10 mg/kg: 34%
